Earlier results, collected in patent publication US7959947B2, “Film coating” (AstraZeneca AB, priority 2001, dated 2011).

Details: 60° C.; according to data in Handbook of Pharmaceutical Excipients

Solubility in water: 0.005 gram per gram water
SMILES: CCCCCCCCCCCCCCCCCCOC(=O)/C=C/C(=O)[O-].[Na+] [Sodium stearyl fumarate, sodium salt of 2-butenedioic monooctadecyl ester]
